In brackets after ≈: the same amount, converted by molar mass. Blank lines part the entries; values can stand above or below the molecule they belong to.
Tests used:
Acinetobacter sp.51-156 = experiment: Antibacterial spectrum (MIC), agar dilution; format: cell-based; details: SP.51156, read-out: MIC
Procedure: (§1) In vitro activity was determined by minimum inhibitory concentration in a microorganism spectum by the agar dilution method in Mueller Hinton agar.

B.fragilis ATCC25285 = experiment: Antibacterial spectrum (MIC), agar dilution; format: cell-based; details: Bacteroides fragilis, read-out: MIC
Procedure: as §1

C.difficile ZH1 = experiment: Antibacterial spectrum (MIC), agar dilution; format: cell-based; details: Clostridioides difficile, read-out: MIC
Procedure: as §1

C.freundii 43 = experiment: Antibacterial spectrum (MIC), agar dilution; format: cell-based; details: Citrobacter freundii, read-out: MIC
Procedure: as §1

C.freundii 902 = experiment: Antibacterial spectrum (MIC), agar dilution; format: cell-based; details: Citrobacter freundii, read-out: MIC
Procedure: as §1

E.cloacae 908R = experiment: Antibacterial spectrum (MIC), agar dilution; format: cell-based; details: Enterobacter cloacae, read-out: MIC
Procedure: as §1

E.cloacae 908SSi = experiment: Antibacterial spectrum (MIC), agar dilution; format: cell-based; details: Enterobacter cloacae, read-out: MIC
Procedure: as §1

E.coli 25922 = experiment: Antibacterial spectrum (MIC), agar dilution; format: cell-based; details: Escherichia coli, read-out: MIC
Procedure: as §1

E.faecalis 6 = experiment: Antibacterial spectrum (MIC), agar dilution; format: cell-based; details: Enterococcus faecalis, read-out: MIC
Procedure: as §1

H.influenzae 1 = experiment: Antibacterial spectrum (MIC), agar dilution; format: cell-based; details: Haemophilus influenzae, read-out: MIC
Procedure: as §1

K.pneumoniae 418 = experiment: Antibacterial spectrum (MIC), agar dilution; format: cell-based; details: Klebsiella pneumoniae, read-out: MIC
Procedure: as §1

L.monocytogenes BK23 = experiment: Antibacterial spectrum (MIC), agar dilution; format: cell-based; details: Listeria monocytogenes, read-out: MIC
Procedure: as §1

M.catarrhalis RA21 = experiment: Antibacterial spectrum (MIC), agar dilution; format: cell-based; details: Moraxella catarrhalis, read-out: MIC
Procedure: as §1

M.morganii 6H-137 = experiment: Antibacterial spectrum (MIC), agar dilution; format: cell-based; details: Morganella morganii, 6H137, read-out: MIC
Procedure: as §1

N.meningitidis 69480 = experiment: Antibacterial spectrum (MIC), agar dilution; format: cell-based; details: Neisseria meningitidis, read-out: MIC
Procedure: as §1

P.aeruginosa 27853 = experiment: Antibacterial spectrum (MIC), agar dilution; format: cell-based; details: Pseudomonas aeruginosa, read-out: MIC
Procedure: as §1

P.asaccharolyticus 29743 = experiment: Antibacterial spectrum (MIC), agar dilution; format: cell-based; details: Peptoniphilus asaccharolyticus, read-out: MIC
Procedure: as §1

P.mirabilis 2117 = experiment: Antibacterial spectrum (MIC), agar dilution; format: cell-based; details: Proteus mirabilis, read-out: MIC
Procedure: as §1

P.vulgaris 1028 = experiment: Antibacterial spectrum (MIC), agar dilution; format: cell-based; details: Proteus vulgaris, read-out: MIC
Procedure: as §1

S.agalactiae QK44 = experiment: Antibacterial spectrum (MIC), agar dilution; format: cell-based; details: Streptococcus agalactiae, read-out: MIC
Procedure: as §1

S.aureus 6538 = experiment: Antibacterial spectrum (MIC), agar dilution; format: cell-based; details: Staphylococcus aureus, read-out: MIC
Procedure: as §1

S.aureus 734 MRSA = experiment: Antibacterial spectrum (MIC), agar dilution; format: cell-based; details: Staphylococcus aureus, read-out: MIC
Procedure: as §1

S.marcescens 69438 = experiment: Antibacterial spectrum (MIC), agar dilution; format: cell-based; details: Serratia marcescens, read-out: MIC
Procedure: as §1

S.pneumoniae Q19 = experiment: Antibacterial spectrum (MIC), agar dilution; format: cell-based; details: Streptococcus pneumoniae, read-out: MIC
Procedure: as §1

S.pyogenes B15 = experiment: Antibacterial spectrum (MIC), agar dilution; format: cell-based; details: Streptococcus pyogenes, read-out: MIC
Procedure: as §1

S.viridans group 016 = experiment: Antibacterial spectrum (MIC), agar dilution; format: cell-based; details: Streptococcus viridans, read-out: MIC
Procedure: as §1

X.maltophilia 1AC739 = experiment: Antibacterial spectrum (MIC), agar dilution; format: cell-based; details: Stenotrophomonas maltophilia, read-out: MIC
Procedure: as §1

S.aureus MSSA = experiment: In vitro activity against selected species (MIC50, MIC90, range); format: cell-based; details: Staphylococcus aureus, medium MHB (Mueller Hinton Broth); for MIC: MIC range
S.pneumoniae PEN-R = experiment: as above; format: cell-based; details: Streptococcus pneumoniae; for MIC: MIC range
S.viridans group = experiment: as above; format: cell-based
E.faecalis [1] = experiment: as above; format: cell-based; details: Enterococcus faecalis, medium MHA
Procedure: as §1

S.aureus MRSA = experiment: as above; format: cell-based; details: Staphylococcus aureus, medium MHA (Mueller Hinton Agar) +NaCl
Procedure: as §1

E.faecium = experiment: In vitro activity against selected species (MIC50, range); format: cell-based; details: Enterococcus faecium, medium MHA
Procedure: as §1

M.catarrhalis = experiment: In vitro activity against selected species (MIC50, MIC90, range); format: cell-based; details: Moraxella catarrhalis, medium IsoB
Escherichia coli 25922 = experiment: Efficacy against systemic infections (septicemia) in mice; format: in vivo; details: 96 h, survival day 4
Procedure: (§2) Septicemia was induced in outbred Swiss albino mice (Jbm MoRo [specific pathogen free]; weight 16 to 20 g, Biomedical Research Laboratories, Füllinsdorf, Switzerland). Mice were infected by intraperitoneal injection of diluted overnight cultures of the test organisms. Bacterial challenge doses were 4-10 times the number of organisms required to kill 50% of untreated animals within 48 h. The test compounds were administered p.o. or s.c. 1 and 3 h after the bacterial challenge. To treat the infection with Pseudomonas aeruginosa BA an additional dose was given 5 h after challenge. Control and treatment groups at each dose were composed of five mice each. The 50% effective dose (ED50, in milligrams per kilogram) was calculated by probit analysis as described by Finney (Finney, D.J. 1978, Statistical method in biological assay, 3rd ed. Charles Griffin & Co., Ltd., London), from the survival rates on day 4 after infection.

S.aureus Smith = experiment: as above; format: in vivo; details: Staphylococcus aureus, 96 h, sc 1 and 3 h after challenge, survival day 4
Procedure: as §2

E.faecalis [2] = experiment: In vitro activity against selected species (MIC50, MIC90, range); format: cell-based; details: Enterococcus faecalis, medium IsoB
[3] = medium IsoB (Isosensitest Broth)
[4] = Escherichia coli 25922, po (orally) 1 and 3 h after challenge
[5] = Escherichia coli, E.coli 25922, sc 1 and 3 h after challenge

MIC (Acinetobacter sp.51-156): > 32 µg/mL
MIC (B.fragilis ATCC25285): 32 µg/mL (≈ 80.9 µM)
MIC (C.difficile ZH1): 32 µg/mL (≈ 80.9 µM)
MIC (C.freundii 43): > 32 µg/mL
MIC (C.freundii 902): 16 µg/mL (≈ 40.5 µM)
MIC (E.cloacae 908R): > 32 µg/mL
MIC (E.cloacae 908SSi): 32 µg/mL (≈ 80.9 µM)
MIC (E.coli 25922): 0.25 µg/mL (≈ 0.632 µM)
MIC (E.faecalis 6): 8 µg/mL (≈ 20.2 µM)
MIC (H.influenzae 1): 0.5 µg/mL (≈ 1.26 µM)
MIC (K.pneumoniae 418): 0.12 µg/mL (≈ 0.303 µM)
MIC (L.monocytogenes BK23): 16 µg/mL (≈ 40.5 µM)
MIC (M.catarrhalis RA21): 1 µg/mL (≈ 2.53 µM)
MIC (M.morganii 6H-137): 8 µg/mL (≈ 20.2 µM)
MIC (N.meningitidis 69480): ≤ 0.06 µg/mL
MIC (P.aeruginosa 27853): > 32 µg/mL
MIC (P.asaccharolyticus 29743): ≤ 0.12 µg/mL
MIC (P.mirabilis 2117): 0.12 µg/mL (≈ 0.303 µM)
MIC (P.vulgaris 1028): 1 µg/mL (≈ 2.53 µM)
MIC (S.agalactiae QK44): 0.25 µg/mL (≈ 0.632 µM)
MIC (S.aureus 6538): 0.5 µg/mL (≈ 1.26 µM)
MIC (S.aureus 734 MRSA): > 32 µg/mL
MIC (S.marcescens 69438): 16 µg/mL (≈ 40.5 µM)
MIC (S.pneumoniae Q19): 0.25 µg/mL (≈ 0.632 µM)
MIC (S.pyogenes B15): ≤ 0.06 µg/mL
MIC (S.viridans group 016): 2 µg/mL (≈ 5.06 µM)
MIC (X.maltophilia 1AC739): > 32 µg/mL
MIC (S.aureus MSSA): 0.5 to 4 µg/mL (≈ 1.26 to 10.1 µM)
MIC50 (S.aureus MSSA): 1 µg/mL (≈ 2.53 µM)
MIC90 (S.aureus MSSA): 2 µg/mL (≈ 5.06 µM)
MIC (S.pneumoniae PEN-R; [3]): 0.1 to 8 µg/mL (≈ 0.253 to 20.2 µM)
MIC (S.pneumoniae PEN-R; medium IsoB + 20% serum): 0.1 to 8 µg/mL
MIC50 (S.pneumoniae PEN-R; [3]): 2 µg/mL (≈ 5.06 µM)
MIC90 (S.pneumoniae PEN-R; [3]): 4 µg/mL (≈ 10.1 µM)
MIC50 (S.pneumoniae PEN-R; medium IsoB + 20% serum): 4 µg/mL
MIC50 (S.viridans group; Streptococcus viridans): 8 µg/mL (≈ 20.2 µM)
MIC90 (S.viridans group; Streptococcus viridans): 16 µg/mL (≈ 40.5 µM)
MIC (E.faecalis [1]; MIC range): 4 to 32 µg/mL (≈ 10.1 to 80.9 µM)
MIC50 (E.faecalis [1]): 8 µg/mL (≈ 20.2 µM)
MIC90 (E.faecalis [1]): 16 µg/mL (≈ 40.5 µM)
MIC50 (S.aureus MRSA): > 32 µg/mL
MIC90 (S.aureus MRSA): > 32 µg/mL
MIC50 (E.faecium): 16 µg/mL (≈ 40.5 µM)
MIC (M.catarrhalis; MIC range): 0.25 to 0.5 µg/mL (≈ 0.632 to 1.26 µM)
MIC50 (M.catarrhalis): 0.25 µg/mL (≈ 0.632 µM)
MIC90 (M.catarrhalis): 0.5 µg/mL (≈ 1.26 µM)
MIC (E.faecalis [2]; MIC range): 1 to 64 µg/mL (≈ 2.53 to 162 µM)
MIC50 (E.faecalis [2]): 8 µg/mL (≈ 20.2 µM)
MIC90 (E.faecalis [2]): 32 µg/mL (≈ 80.9 µM)
SMILES: C=CC1=C(C(=O)O)N2C(=O)[C@@H](NC(=O)/C(=N\O)c3csc(N)n3)[C@H]2SC1 [Cefdinir, reference compound]
Range (S.viridans group; MIC range, medium IsoB): <0.12 to 128 µg/mL
ED50 (Escherichia coli 25922; [4]): 1.8 mg/kg
ED50 (Escherichia coli 25922; [5]): < 1 mg/kg
ED50 (S.aureus Smith): < 1 mg/kg

MIC (Acinetobacter sp.51-156): 32 µg/mL (≈ 57.7 µM)
MIC (B.fragilis ATCC25285): 16 µg/mL (≈ 28.9 µM)
MIC (C.difficile ZH1): > 32 µg/mL
MIC (C.freundii 43): 32 µg/mL (≈ 57.7 µM)
MIC (C.freundii 902): 0.25 µg/mL (≈ 0.451 µM)
MIC (E.cloacae 908R): > 32 µg/mL
MIC (E.cloacae 908SSi): 0.25 µg/mL (≈ 0.451 µM)
MIC (E.coli 25922): ≤ 0.06 µg/mL
MIC (E.faecalis 6): > 32 µg/mL
MIC (H.influenzae 1): < 0.06 µg/mL
MIC (K.pneumoniae 418): ≤ 0.06 µg/mL
MIC (L.monocytogenes BK23): > 16 µg/mL
MIC (M.catarrhalis RA21): 1 µg/mL (≈ 1.8 µM)
MIC (M.morganii 6H-137): ≤ 0.06 µg/mL
MIC (N.meningitidis 69480): < 0.01 µg/mL
MIC (P.aeruginosa 27853): 16 µg/mL (≈ 28.9 µM)
MIC (P.asaccharolyticus 29743): 0.25 µg/mL (≈ 0.451 µM)
MIC (P.mirabilis 2117): ≤ 0.06 µg/mL
MIC (P.vulgaris 1028): 0.12 µg/mL (≈ 0.216 µM)
MIC (S.agalactiae QK44): ≤ 0.06 µg/mL
MIC (S.aureus 6538): 4 µg/mL (≈ 7.21 µM)
MIC (S.aureus 734 MRSA): > 32 µg/mL
MIC (S.marcescens 69438): 0.25 µg/mL (≈ 0.451 µM)
MIC (S.pneumoniae Q19): ≤ 0.06 µg/mL
MIC (S.pyogenes B15): ≤ 0.06 µg/mL
MIC (S.viridans group 016): 0.25 µg/mL (≈ 0.451 µM)
MIC (X.maltophilia 1AC739): > 32 µg/mL
MIC (S.aureus MSSA): 2 to 16 µg/mL (≈ 3.61 to 28.9 µM)
MIC50 (S.aureus MSSA): 4 µg/mL (≈ 7.21 µM)
MIC90 (S.aureus MSSA): 16 µg/mL (≈ 28.9 µM)
MIC (S.pneumoniae PEN-R; [3]): 0.1 to 2 µg/mL (≈ 0.18 to 3.61 µM)
MIC (S.pneumoniae PEN-R; medium IsoB + 20% serum): 1 to 8 µg/mL
MIC50 (S.pneumoniae PEN-R; [3]): 0.5 µg/mL (≈ 0.902 µM)
MIC90 (S.pneumoniae PEN-R; [3]): 1 µg/mL (≈ 1.8 µM)
MIC50 (S.pneumoniae PEN-R; medium IsoB + 20% serum): 4 µg/mL
MIC50 (E.faecalis [1]): > 32 µg/mL
MIC90 (E.faecalis [1]): > 32 µg/mL
MIC (S.aureus MRSA; MIC range): > 32 µg/mL
MIC50 (S.aureus MRSA): > 32 µg/mL
MIC90 (S.aureus MRSA): > 32 µg/mL
MIC (E.faecium; MIC range): > 32 µg/mL
MIC50 (E.faecium): > 32 µg/mL
SMILES: CO/N=C(\C(=O)N[C@@H]1C(=O)N2C(C(=O)O)=C(CSc3nc(=O)c(=O)[nH]n3C)CS[C@H]12)c1csc(N)n1 [Ceftriaxone, [6R-[6 α,7 β(Z)]]-7-[[(2-Amino-4-thiazolyl)(methoxyimino)acetyl]amino]-8-oxo-3-[[(1,2,5,6-tetrahydro-2-methyl-5,6-dioxo-1,2,4-triazin-3-yl)thio]methyl]-5-thia-1-azabicyclo[4.2.0]oct-2-ene-2-carboxylic acid, reference compound]
ED50 (Escherichia coli 25922; [4]): 0.9 mg/kg
ED50 (Escherichia coli 25922; [5]): ≤ 0.01 mg/kg
ED50 (S.aureus Smith): < 2 mg/kg

— patent publication EP0620225B1, “Cephalosporin derivatives” (Basilea Pharmaceutica AG, priority 1993, dated 1994)
